ChEMBL document CHEMBL1128134, “Characterization of a continuous fluorogenic assay for calpain I. Kinetic evaluation of peptide aldehydes, halomethyl ketones and (acyloxy)methyl ketones as inhibitors of the enzyme” (Bioorg Med Chem Lett, 1995)
Values belong to the molecule of their own block, whether it stands above or below them.

What was measured:
[1] = Ratio of rate of catalysis to Michaelis-Menten constant was determined
[2] = molecular target: T1, Calpain-1 catalytic subunit (Homo sapiens) (UniProt P07384); assay: Rate of catalysis as a measure of ability to serve as substrate of Calpain
T1 sequence (whole entry): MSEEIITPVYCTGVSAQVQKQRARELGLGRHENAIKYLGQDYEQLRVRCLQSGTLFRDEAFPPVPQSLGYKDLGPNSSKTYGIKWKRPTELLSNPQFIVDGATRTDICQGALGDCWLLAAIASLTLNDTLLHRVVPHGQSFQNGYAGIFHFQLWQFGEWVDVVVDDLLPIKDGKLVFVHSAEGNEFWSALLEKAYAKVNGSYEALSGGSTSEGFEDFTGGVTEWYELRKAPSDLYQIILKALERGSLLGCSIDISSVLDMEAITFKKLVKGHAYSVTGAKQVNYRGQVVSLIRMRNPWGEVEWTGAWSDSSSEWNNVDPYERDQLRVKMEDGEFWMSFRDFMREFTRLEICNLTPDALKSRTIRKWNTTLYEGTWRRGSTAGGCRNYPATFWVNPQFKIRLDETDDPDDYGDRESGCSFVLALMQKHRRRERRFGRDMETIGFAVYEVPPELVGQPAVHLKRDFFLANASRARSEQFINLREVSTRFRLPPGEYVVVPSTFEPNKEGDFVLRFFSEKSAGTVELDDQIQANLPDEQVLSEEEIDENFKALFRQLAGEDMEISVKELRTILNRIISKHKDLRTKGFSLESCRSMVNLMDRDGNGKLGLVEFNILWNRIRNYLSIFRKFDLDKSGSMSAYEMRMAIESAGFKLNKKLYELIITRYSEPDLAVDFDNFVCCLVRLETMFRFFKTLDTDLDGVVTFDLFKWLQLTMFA

[3] = molecular target: Calpain 1 (Homo sapiens) (UniProt P04632+P07384); assay: Apparent second order rate constant for inhibition of calpain-1 by fluorogenic assay.; assay type: protein-complex assay
[4] = molecular target: T1, Calpain-1 catalytic subunit (Homo sapiens); assay: Compound was tested for apparent second order rate constant for inhibition of calpain I in an endpoint (non-continuous) calpain assay
[5] = substrate: COc1ccc2cccc(NC(=O)[C@@H](CCCN=C(N)N)NC(=O)[C@H](CC(C)C)NC(=O)[C@@H](NC(=O)OCc3ccccc3)C(C)C)c2c1; assay: (§1) Michaelis-Menten kinetics value as a measure of ability to serve as substrate of Calpain
[6] = substrate: Cc1cc(=O)oc2cc(NC(=O)[C@@H](CCCCN)NC(=O)[C@H](CC(C)C)NC(=O)[C@@H](NC(=O)OC(C)(C)C)C(C)C)ccc12; assay: as §1
[7] = substrate: CC(C)C[C@H](NC(=O)OCc1ccccc1)C(=O)N[C@@H](CCCN=C(N)N)C(=O)Nc1ccc2c(C(F)(F)F)cc(=O)oc2c1; assay: as §1
[8] = substrate: COc1ccc2cccc(NC(=O)[C@H](CCCN=C(N)N)NC(=O)[C@H](CC(C)C)NC(=O)OCc3ccccc3)c2c1; assay: as §1
[9] = substrate: Cc1cc(=O)oc2cc(NC(=O)[C@H](NC(=O)[C@H](CC(C)C)NC(=O)[C@H](CC(C)C)NC(=O)CCC(=O)O)C(C)C)ccc12; assay: as §1
[10] = substrate: Cc1cc(=O)oc2cc(NC(=O)[C@@H](Cc3ccc(O)cc3)NC(=O)[C@H](NC(=O)[C@H](CC(C)C)NC(=O)[C@H](CC(C)C)NC(=O)CCC(=O)O)C(C)C)ccc12; assay: as §1
[11] = substrate: Cc1cc(=O)oc2cc(NC(=O)[C@H](CCCN=C(N)N)NC(=O)[C@H](CC(C)C)NC(=O)OCc3ccccc3)ccc12; assay: as §1

Molecule: CC(C)C[C@H](NC(=O)[C@H]1O[C@@H]1C(=O)O)C(=O)NCCCCN=C(N)N
k obs / 1 [3]: 2500 M⁻¹ s⁻¹
k obs / 1 [4]: 7500 M⁻¹ s⁻¹

Molecule: COc1ccc2cccc(NC(=O)[C@H](CCCN=C(N)N)NC(=O)[C@H](CC(C)C)NC(=O)OCc3ccccc3)c2c1
Ratio [1]: 1400 M⁻¹ s⁻¹
k cat [2]: 0.52 s⁻¹

B1: Calpain-1 catalytic subunit (Homo sapiens), P07384 (protein)
chain: T1 sequence (whole entry)
Km [5]: 100 µM
Km [6]: 5900 µM
Km [7]: 460 µM
Km [8]: 370 µM
Km [9]: 200 µM
Km [10]: 160 µM
Km [11]: 190 µM

Results, then the molecule that gave them:

Ratio [1]: 141 M⁻¹ s⁻¹
k cat [2]: 0.29 s⁻¹
Molecule: Cc1cc(=O)oc2cc(NC(=O)[C@H](NC(=O)[C@H](CC(C)C)NC(=O)[C@H](CC(C)C)NC(=O)CCC(=O)O)C(C)C)ccc12

Ratio [1]: 153 M⁻¹ s⁻¹
k cat [2]: 0.07 s⁻¹
Molecule: CC(C)C[C@H](NC(=O)OCc1ccccc1)C(=O)N[C@@H](CCCN=C(N)N)C(=O)Nc1ccc2c(C(F)(F)F)cc(=O)oc2c1

Ratio [1]: 83 M⁻¹ s⁻¹
k cat [2]: 0.49 s⁻¹
Molecule: Cc1cc(=O)oc2cc(NC(=O)[C@@H](CCCCN)NC(=O)[C@H](CC(C)C)NC(=O)[C@@H](NC(=O)OC(C)(C)C)C(C)C)ccc12

Ratio [1]: 105 M⁻¹ s⁻¹
k cat [2]: 0.02 s⁻¹
Molecule: Cc1cc(=O)oc2cc(NC(=O)[C@H](CCCN=C(N)N)NC(=O)[C@H](CC(C)C)NC(=O)OCc3ccccc3)ccc12

Ratio [1]: 262 M⁻¹ s⁻¹
k cat [2]: 0.42 s⁻¹
Molecule: Cc1cc(=O)oc2cc(NC(=O)[C@@H](Cc3ccc(O)cc3)NC(=O)[C@H](NC(=O)[C@H](CC(C)C)NC(=O)[C@H](CC(C)C)NC(=O)CCC(=O)O)C(C)C)ccc12
